Reference: patent publication US10544106B2, “Certain chemical entities, compositions, and methods” (NeuPharma, Inc., priority 2016, dated 2020)

How the values were obtained:
EGFR (ErbB1) T790M = EGFR (ErbB1) T790M (Homo sapiens (Human), UniProt P00533, T790M); test: Z'-LYTE kinase inhibition assay against EGFR T790M; type: biochemical; details: compound at 100 nM; ATP concentration at Km
Procedure: (§1) Inhibitory activities of compounds against BTK, EGFR T790M, EGFR L858R, and EGFR L858R/T790M were measured using Z′-LYTE® Method from Life Technologies as briefly described in the following.
(§2) Test Compounds are screened in 1% DMSO (final) in the well. For 10 point titrations, 3-fold serial dilutions are conducted from the starting concentration. All ATP Solutions are diluted to a 4× working concentration in Kinase Buffer (50 mM HEPES pH 7.5, 0.01% BRIJ-35, 10 mM MgCl2, 1 mM EGTA). Peptide/Kinase Mixtures are diluted to a 2× working concentration in the appropriate Kinase Buffers as described below. • (i) Peptide/Kinase Mixtures for measurement of EGFR (ErbB1) L858R: • The 2×EGFR (ErbB1) L858R/Tyr 04 mixture is prepared in 50 mM HEPES pH 7.5, 0.01% BRIJ-35, 10 mM MgCl2, 4 mM MnCl2. 1 mM EGTA, 2 mM DTT. The final 10 μL Kinase Reaction consists of 0.2-1.68 ng EGFR (ErbB1) L858R and 2 μM Tyr 04 in 50 mM HEPES pH 7.5, 0.01% BRIJ-35, 10 mM MgCl2, 2 mM MnCl2, 1 mM EGTA, 1 mM DTT. After the 1 hour Kinase Reaction incubation, 5 μL of a 1:64 dilution of Development Reagent B is added. • (ii) Peptide/Kinase Mixtures for measurement of EGFR (ErbB1) T790M: The 2×EGFR (ErbB1) T790M/Tyr 04 mixture is prepared in 50 mM HEPES pH 6.5, 0.01% BRIJ-35, 10 mM MgCl2, 1 mM EGTA, 0.02% NaN3. The final 10 μL Kinase Reaction consists of 3.9-30.2 ng EGFR (ErbB1) T790M and 2 μM Tyr 04 in 50 mM HEPES pH 7.0, 0.01% BRIJ-35, 10 mM MgCl2, 1 mM EGTA, 0.01% NaN3. After the 1 hour Kinase Reaction incubation, 5 μL of a 1:64 dilution of Development Reagent B is added. • (iii) Peptide/Kinase Mixtures for measurement of EGFR (ErbB1) L858R/T790M: The 2×EGFR (ErbB1) T790M L858R/Tyr 04 mixture is prepared in 50 mM HEPES pH 6.5, 0.01% BRIJ-35, 10 mM MgCl2, 1 mM EGTA, 0.02% NaN3. The final 10 μL Kinase Reaction consists of 0.38-4.22 ng EGFR (ErbB1) T790M L858R and 2 μM Tyr 04 in 50 mM HEPES pH 7.0, 0.01% BRIJ-35, 10 mM MgCl2, 1 mM EGTA, 0.01% NaN3. After the 1 hour Kinase Reaction incubation, 5 μL of a 1:64 dilution of Development Reagent B is added. • (iv) Peptide/Kinase Mixtures for measurement of BTK: The 2×BTK/Tyr 01 mixture is prepared in 50 mM HEPES pH 7.5, 0.010/BRIJ-35, 10 mM MgCl2, 1 mM EGTA. The final 10 μL Kinase Reaction consists of 1.04-10.4 ng BTK and 2 μM Tyr 01 in 50 mM HEPES pH 7.5, 0.01% BRIJ-35, 10 mM MgCl2, 1 mM EGTA. After the 1 hour Kinase Reaction incubation, 5 μL of a 1:256 dilution of Development Reagent B is added.
(§3) Reaction starts by 30-second shaking of mixture consisting of 2.5 μL 4× test compound, 5 μL 2× kinase reaction mixture and 2.5 μL 4×ATP Solution on Bar-coded Corning, low volume NBS, black 384-well plate (Corning Cat. #3676). Then the mixture is incubated for 60-minute at room temperature for the kinase reaction, followed by addition of 5 μL of a 1:1024 dilution of development reagent A and 30-second plate shake. The mixture is then incubated for another 60-minute at room temperature for development reaction. Finally fluorescence is read by plate reader.
(§4) The Z′-LYTE assay was carried out with ATP concentration at Km. The scale utilized in Tables 2-6 is as follows: ++ more than 50% inhibition and + less than 50% inhibition.

EGFR (ErbB1) L858R/T790M = EGFR (ErbB1) L858R/T790M (Homo sapiens (Human), UniProt P00533, L858R/T790M); test: Z'-LYTE kinase inhibition assay against EGFR L858R/T790M; type: biochemical; details: compound at 100 nM; ATP concentration at Km
Chain of EGFR (ErbB1) L858R/T790M (P00533 25-1210 T790M/L858R): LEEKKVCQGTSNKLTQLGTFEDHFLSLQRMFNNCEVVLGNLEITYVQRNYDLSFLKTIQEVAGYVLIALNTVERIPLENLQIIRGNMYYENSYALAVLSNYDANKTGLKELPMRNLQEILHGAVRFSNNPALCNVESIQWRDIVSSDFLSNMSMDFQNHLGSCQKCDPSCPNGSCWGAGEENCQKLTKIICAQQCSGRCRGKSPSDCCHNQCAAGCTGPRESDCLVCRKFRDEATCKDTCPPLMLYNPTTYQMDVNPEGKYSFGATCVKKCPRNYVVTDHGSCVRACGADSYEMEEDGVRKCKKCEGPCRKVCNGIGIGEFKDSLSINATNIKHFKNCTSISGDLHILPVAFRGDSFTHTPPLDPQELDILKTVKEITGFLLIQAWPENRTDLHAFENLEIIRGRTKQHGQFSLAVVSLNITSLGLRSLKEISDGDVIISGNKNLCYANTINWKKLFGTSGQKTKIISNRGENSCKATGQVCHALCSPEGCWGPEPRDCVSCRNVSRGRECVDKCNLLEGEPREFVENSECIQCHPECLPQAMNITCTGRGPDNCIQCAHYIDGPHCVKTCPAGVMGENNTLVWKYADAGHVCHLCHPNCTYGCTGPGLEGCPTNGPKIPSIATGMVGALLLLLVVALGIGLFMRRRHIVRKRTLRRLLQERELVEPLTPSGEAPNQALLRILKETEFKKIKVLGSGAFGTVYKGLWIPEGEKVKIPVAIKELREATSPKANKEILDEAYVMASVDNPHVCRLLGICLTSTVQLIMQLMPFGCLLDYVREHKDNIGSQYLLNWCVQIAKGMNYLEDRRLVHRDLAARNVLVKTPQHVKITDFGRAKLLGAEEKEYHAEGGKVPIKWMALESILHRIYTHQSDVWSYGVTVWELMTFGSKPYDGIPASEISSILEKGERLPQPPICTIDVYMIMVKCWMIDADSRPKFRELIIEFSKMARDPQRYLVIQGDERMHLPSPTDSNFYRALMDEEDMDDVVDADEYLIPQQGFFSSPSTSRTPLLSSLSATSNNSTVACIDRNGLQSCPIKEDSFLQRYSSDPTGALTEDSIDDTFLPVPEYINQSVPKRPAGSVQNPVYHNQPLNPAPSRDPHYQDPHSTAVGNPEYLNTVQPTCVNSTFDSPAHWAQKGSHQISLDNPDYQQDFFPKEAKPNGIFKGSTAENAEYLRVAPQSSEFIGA
Procedure: as §1, §2, §3, §4

EGFR (ErbB1) L858R = EGFR (ErbB1) L858R (Homo sapiens (Human), UniProt P00533, L858R); test: Z'-LYTE kinase inhibition assay against EGFR L858R; type: biochemical; details: compound at 100 nM; ATP concentration at Km
Chain of EGFR (ErbB1) L858R (P00533 25-1210 L858R): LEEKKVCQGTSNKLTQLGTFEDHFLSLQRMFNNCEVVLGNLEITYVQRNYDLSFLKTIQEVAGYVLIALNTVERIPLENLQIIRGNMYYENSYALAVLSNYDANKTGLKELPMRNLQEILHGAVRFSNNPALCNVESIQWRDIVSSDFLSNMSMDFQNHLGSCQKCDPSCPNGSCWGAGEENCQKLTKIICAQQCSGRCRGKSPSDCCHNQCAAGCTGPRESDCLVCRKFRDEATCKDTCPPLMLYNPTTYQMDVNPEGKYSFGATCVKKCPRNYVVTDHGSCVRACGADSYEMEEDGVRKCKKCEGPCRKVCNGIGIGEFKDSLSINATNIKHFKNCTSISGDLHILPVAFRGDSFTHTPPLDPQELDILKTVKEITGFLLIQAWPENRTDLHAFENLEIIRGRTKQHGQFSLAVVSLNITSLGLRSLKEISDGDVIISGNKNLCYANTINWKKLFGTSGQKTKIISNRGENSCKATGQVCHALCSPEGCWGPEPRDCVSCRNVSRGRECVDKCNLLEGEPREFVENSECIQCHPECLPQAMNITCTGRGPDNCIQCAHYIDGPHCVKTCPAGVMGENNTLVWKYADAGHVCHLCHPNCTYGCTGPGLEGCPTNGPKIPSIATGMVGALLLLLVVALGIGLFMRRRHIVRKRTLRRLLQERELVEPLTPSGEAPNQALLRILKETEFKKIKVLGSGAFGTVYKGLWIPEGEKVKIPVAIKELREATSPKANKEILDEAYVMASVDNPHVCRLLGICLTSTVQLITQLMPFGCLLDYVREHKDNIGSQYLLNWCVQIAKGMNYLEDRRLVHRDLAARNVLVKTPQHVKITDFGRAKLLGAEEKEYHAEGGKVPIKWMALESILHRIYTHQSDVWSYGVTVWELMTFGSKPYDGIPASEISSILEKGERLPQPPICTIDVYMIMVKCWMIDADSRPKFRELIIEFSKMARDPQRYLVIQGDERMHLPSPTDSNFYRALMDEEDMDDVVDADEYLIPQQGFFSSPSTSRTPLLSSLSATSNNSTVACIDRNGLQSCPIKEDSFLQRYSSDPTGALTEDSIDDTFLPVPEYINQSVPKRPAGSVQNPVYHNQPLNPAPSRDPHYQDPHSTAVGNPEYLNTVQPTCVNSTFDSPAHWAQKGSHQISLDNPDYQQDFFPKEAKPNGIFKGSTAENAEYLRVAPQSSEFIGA
Procedure: as §1, §2, §3, §4

BTK = BTK (Homo sapiens (Human), UniProt Q06187); test: Z'-LYTE kinase inhibition assay against BTK; type: biochemical; details: for inhibition at 0.1 µM: compound at 100 nM, ATP concentration at Km; for IC50: series of concentrations, GraphPad Prism 5
Summary of the method: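 Z′-LYTE FRET readout: 1.04-10.4 ng BTK with 2 μM Tyr 01 peptide, ATP at Km, in 50 mM HEPES pH 7.5, 10 mM MgCl2, 1 mM EGTA, 0.01% BRIJ-35, 1% DMSO. 60 min kinase reaction at room temperature, then 60 min development; IC50 from 10-point, 3-fold titrations.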

OCI-Ly10 cells = test: OCI-Ly10 cell proliferation assay (Alamar Blue, 72 hours); type: cell-based; details: Homo sapiens
Procedure: OCI-Ly10 cells were cultured in Iscove's DMEM supplemented with 20% fetal bovine serum and 1× penicillin/streptomycin/glutamine. The cells were maintained in T175 flasks under 5% CO2 in a 37 ° C. humidified incubator for 5 days prior to plating and assay.
Cells were pooled by centrifugation (200 ref, 8 minutes) and resuspended in fresh medium to a concentration of 2.00E+05 cells/ml. 200 µl of the cell suspension was added to each well (40,000 cells/well) of a black-walled 96 well plate to which 1 μl of compound (n=3 per concentration) in 100% DMSO (0.5% final concentration) was added per well. Vehicle and cell free wells were also included in the assay. The dosed cells were cultured under normal conditions for 72 hours.
Cell proliferation is measured using the dye Alamar Blue (resazurin). Resazurin is reduced to resorufin by cellular enzymes and is fluorescent (544 nm excitation, 612 nm emission). Fluorescence intensity is proportional to cell number. Resazurin was prepared in PBS to a stock concentration of 440 μM. 40 μl of the 440 μM resazurin stock solution was added 3 hours prior to the 72 hour termination of the assay. The plate was returned to normal culture conditions and fluorescence measurements were collected using a Cytation3 multimode plate reader (Biotek) at 72 hours.
The scale utilized in Table 8 is as follows: ++ less than 50 nM and + greater than 50 nM.

EGFR del746_750 = EGFR del746_750 (Homo sapiens (Human), UniProt P00533, DEL746-750); test: SelectScreen Lantha method (Eu-anti-GST antibody/tracer) for EGFR del746_750; type: binding; details: compound at 100 nM; read-out: % Inhibition against EGFR del745_750
Chain of EGFR del746_750 (P00533 other isoform, or with tags, fused parts or gaps del E746-A750): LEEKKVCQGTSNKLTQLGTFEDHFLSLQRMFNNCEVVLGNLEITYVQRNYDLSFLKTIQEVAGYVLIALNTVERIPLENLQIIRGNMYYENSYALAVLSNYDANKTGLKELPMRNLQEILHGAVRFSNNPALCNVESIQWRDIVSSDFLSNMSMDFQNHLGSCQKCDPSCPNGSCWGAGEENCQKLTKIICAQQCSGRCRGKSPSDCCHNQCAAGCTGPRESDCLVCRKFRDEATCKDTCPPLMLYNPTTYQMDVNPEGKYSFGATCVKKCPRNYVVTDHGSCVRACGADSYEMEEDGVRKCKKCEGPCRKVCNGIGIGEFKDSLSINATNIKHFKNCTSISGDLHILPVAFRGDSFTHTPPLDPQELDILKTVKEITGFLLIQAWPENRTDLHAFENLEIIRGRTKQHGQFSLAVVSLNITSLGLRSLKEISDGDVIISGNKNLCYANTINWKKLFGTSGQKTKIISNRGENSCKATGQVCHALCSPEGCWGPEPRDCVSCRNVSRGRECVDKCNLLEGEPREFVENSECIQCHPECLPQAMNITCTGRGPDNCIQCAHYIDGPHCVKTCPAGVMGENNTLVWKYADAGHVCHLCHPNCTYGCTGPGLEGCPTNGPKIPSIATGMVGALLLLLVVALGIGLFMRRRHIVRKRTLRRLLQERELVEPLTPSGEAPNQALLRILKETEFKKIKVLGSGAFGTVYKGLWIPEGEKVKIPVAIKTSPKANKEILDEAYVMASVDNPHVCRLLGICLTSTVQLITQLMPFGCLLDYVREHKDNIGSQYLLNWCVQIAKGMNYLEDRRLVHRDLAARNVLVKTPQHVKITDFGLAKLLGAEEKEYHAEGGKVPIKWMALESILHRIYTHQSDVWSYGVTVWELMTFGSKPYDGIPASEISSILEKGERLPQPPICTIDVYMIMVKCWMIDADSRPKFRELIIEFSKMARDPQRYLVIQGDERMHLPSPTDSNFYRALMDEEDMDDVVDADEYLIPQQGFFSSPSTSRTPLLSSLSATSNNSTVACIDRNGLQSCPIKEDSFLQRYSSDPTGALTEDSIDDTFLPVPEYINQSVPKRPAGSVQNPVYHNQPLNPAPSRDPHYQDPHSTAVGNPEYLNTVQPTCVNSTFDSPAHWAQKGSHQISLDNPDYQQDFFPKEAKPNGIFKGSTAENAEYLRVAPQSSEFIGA
Procedure: SelecteScreen's Lantha® method from Life Technologies was used to measure compound's activities in inhibition of EGFR del746_750.
Test Compounds are screened in 1% DMSO (final) in the well. For 10 point titrations, 3-fold serial dilutions are conducted from the starting concentration. • Components for EGFR del745_750: • Kinase Buffer A: 50 mM HEPES pH 7.5, 0.01% BRIJ-35, 10 mM MgCl2, 1 mM EGTA • Kinase/Antibody Mixtures for EGFR del745_ 750: EGFR del745_ 750 10 nM, Antibody: Eu-anti-GST 2 nM, Tracer 199 10 nM, Inhibitor: SB202190 88.2 nM, All Kinase/Antibody Mixtures are diluted to a 2× working concentration in the appropriate Kinase Buffer • Tracer: The 4× AlexaFluor® labeled Tracer is prepared in Kinase Buffer.
To start the measurement, the following components are added to individual wells of bar-coded, low volume, white 384-well plate (Greiner Cat. #784207): • 1. 160 nL—100× Test Compound in 100% DMSO. • 2. 3.84 μL—Kinase Buffer: • 3. 8.0 μL—2× Kinase/Antibody Mixture • 4. 4.0 μL—4× Tracer The mixture above is then shaken for 30-second following by 60-minute incubation at room temperature. Finally the plate is read on fluorescence plate reader.
as §4

Chain of EGFR (ErbB1) T790M (P00533 25-1210 T790M): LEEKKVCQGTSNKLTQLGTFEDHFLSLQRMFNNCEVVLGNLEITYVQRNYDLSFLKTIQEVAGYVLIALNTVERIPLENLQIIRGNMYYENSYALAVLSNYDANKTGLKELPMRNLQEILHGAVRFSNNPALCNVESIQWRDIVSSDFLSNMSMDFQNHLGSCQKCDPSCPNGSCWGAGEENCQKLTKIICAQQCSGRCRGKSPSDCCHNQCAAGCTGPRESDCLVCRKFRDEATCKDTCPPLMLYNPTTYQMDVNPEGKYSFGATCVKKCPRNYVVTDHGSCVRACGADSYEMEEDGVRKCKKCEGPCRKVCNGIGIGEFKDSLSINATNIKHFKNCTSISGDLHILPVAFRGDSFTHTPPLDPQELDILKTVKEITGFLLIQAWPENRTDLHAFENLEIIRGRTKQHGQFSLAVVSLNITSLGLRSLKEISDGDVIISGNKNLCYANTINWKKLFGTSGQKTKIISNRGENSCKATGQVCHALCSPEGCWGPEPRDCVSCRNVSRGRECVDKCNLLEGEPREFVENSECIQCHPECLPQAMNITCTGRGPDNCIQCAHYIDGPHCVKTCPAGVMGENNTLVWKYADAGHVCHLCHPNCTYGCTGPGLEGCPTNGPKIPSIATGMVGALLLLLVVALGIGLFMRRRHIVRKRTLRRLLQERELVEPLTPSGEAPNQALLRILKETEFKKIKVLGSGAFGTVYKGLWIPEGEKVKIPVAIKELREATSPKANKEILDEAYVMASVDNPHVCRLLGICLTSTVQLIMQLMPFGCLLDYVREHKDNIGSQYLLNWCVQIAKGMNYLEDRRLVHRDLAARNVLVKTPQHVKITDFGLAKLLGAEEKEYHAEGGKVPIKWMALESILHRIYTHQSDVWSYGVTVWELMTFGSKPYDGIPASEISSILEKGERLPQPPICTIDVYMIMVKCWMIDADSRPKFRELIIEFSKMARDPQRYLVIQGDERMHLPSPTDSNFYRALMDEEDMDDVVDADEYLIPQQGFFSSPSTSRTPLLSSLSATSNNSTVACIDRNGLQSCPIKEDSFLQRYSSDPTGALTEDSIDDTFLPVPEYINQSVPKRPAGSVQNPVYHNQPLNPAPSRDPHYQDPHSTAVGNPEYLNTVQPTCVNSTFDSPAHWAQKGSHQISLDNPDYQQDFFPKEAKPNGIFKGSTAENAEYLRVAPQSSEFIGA

Compound | inhibition at 0.1 µM (EGFR (ErbB1) T790M) [%] | inhibition at 0.1 µM (EGFR (ErbB1) L858R/T790M) [%] | inhibition at 0.1 µM (EGFR (ErbB1) L858R) [%] | inhibition at 0.1 µM (BTK) [%] | IC50 (BTK) [nM] | IC50 (OCI-Ly10 cells) [nM] | inhibition at 0.1 µM (EGFR del746_750) [%]
C=CC(=O)Nc1cccc(-c2cc(-c3ccc(C(=O)Nc4ccccn4)cc3)cc3cncnc23)c1 [C008, 4-(8-(3-acrylamidophenyl)quinazolin-6-yl)-N-(pyridin-2-yl)benzamide] | < 50 | < 50 | < 50 | > 50 | < 100 | < 50 | < 50
C=CC(=O)N1CCCC(c2cc(-c3ccc(C)nc3)cc3cnc(N)nc23)C1 (stereo not shown) [C042, 1-(3-(2-amino-6-(6-methylpyridin-3-yl)quinazolin-8-yl)piperidin-1-yl)prop-2-en-1-one] | < 50 | < 50 | < 50 | < 50 | – | – | < 50
C=CC(=O)Nc1cccc(-c2cc(-c3ccc(C(=O)Nc4cccc(C(F)(F)F)c4)cc3)cc3cncnc23)c1 [C051, 4-(8-(3-acrylamidophenyl)quinazolin-6-yl)-N-(3-(trifluoromethyl)phenyl)benzamide] | > 50 | > 50 | > 50 | > 50 | < 100 | – | > 50
C=CC(=O)Nc1cccc(-c2cc(-c3ccc(C(=O)Nc4ccccn4)cc3Cl)cc3cncnc23)c1 [C052, 4-(8-(3-acrylamidophenyl)quinazolin-6-yl)-3-chloro-N-(pyridin-2-yl)benzamide] | < 50 | < 50 | < 50 | > 50 | < 100 | < 50 | < 50
C=CC(=O)Nc1cccc(-c2cc(-c3cccc(F)c3)cc3cncnc23)c1 [C073, N-(3-(6-(3-fluorophenyl)quinazolin-8-yl)phenyl)acrylamide] | < 50 | < 50 | > 50 | > 50 | < 100 | – | > 50
C=CC(=O)Nc1cccc(-c2cc(-c3ccccc3)cc3cnc(Nc4ccccc4)nc23)c1 [C074, N-(3-(6-phenyl-2-(phenylamino)quinazolin-8-yl)phenyl)acrylamide] | < 50 | < 50 | > 50 | > 50 | < 100 | – | > 50
C=CC(=O)Nc1cccc(-c2cc(-c3cccnc3)cc3cnc(Nc4ccccc4)nc23)c1 [C076, N-(3-(2-(phenylamino)-6-(pyridin-3-yl)quinazolin-8-yl)phenyl)acrylamide] | < 50 | < 50 | > 50 | > 50 | < 100 | – | > 50
